US9657033B2, “Tetrahydronaphthyridine and related bicyclic compounds for inhibition of RORγ activity and the treatment of disease” (Merck Sharp & Dohme Corp., priority 2012, dated 2017)

What was measured:
RORγ-LBD [1] = target: T1, RORγ-LBD (Homo sapiens (Human), UniProt P51449); assay: RORγ-Ligand Binding Domain (LBD) TR-FRET Assay Protocol I; type: biochemical; settings: for EC50: RORγ-LBD lysate from SF9 cells, SRC1-2 peptide; for RORγ inhibition: Protocol I, assay measuring EC50 values less than or equal to 10 μM
Description: Part I—Procedures for RORγ-Ligand Binding Domain TR-FRET Assay Protocol I
Recombinant,HIS-tagged RORγ-LBD was expressed in SF9 cells using a baculovirus expression system. Cells were lysed and the lysate was used as a source for RORγ-LBD for the assay. A 1:80 dilution of RORγ-LBD lysate in assay buffer (25 mM HEPES pH 7.0, 100 mM NaCl, 0.01% Tween, 0.1% BSA) was prepared and 5 μL was added to each well (RORγ-LBD final concentration ˜3 nM). Control wells received lysate from SF9 cells not expressing RORγ-LBD.
Compounds to be tested were diluted to 100× final test concentration in DMSO and further diluted to 4× final test concentration using assay buffer to provide the test compound mixture. An aliquot (5 μL) of the test compound mixture was added to each well.
A 4× stock of biotinylated-LXXLL peptide from SRC1-2 (Biotin-[…]) was prepared in assay buffer and a 5 μL aliquot added to each well (450 nM final concentration). A 4× solution of europium tagged anti-HIS antibody (2 nM final concentration) and APC conjugated streptavidin (60 nM final concentration) were prepared and a 5 μL aliquot added to each well.
(§1) The final assay mixture was incubated for 4 hours to overnight, and the fluorescence signal was measured on an Envision plate reader: (Excitation filter=340 nm; APC emission=665 nm; Europium emission=615 nm; dichroic mirror=D400/D630; delay time=100 μs, integration time=200 μs).
EC50 values for test compounds were calculated from the quotient of the fluorescence signal at 665 nm divided by the fluorescence signal at 615 nm using GraphPad Prism software

RORγ-LBD [2] = target: T1, RORγ-LBD; assay: RORγ-Ligand Binding Domain (LBD) TR-FRET Assay Protocol II; type: biochemical; settings: purified RORγ-LBD, SRC1 peptide, overnight at 4° C.
Description: Part II—Procedures for RORγ-Ligand Binding Domain TR-FRET Assay Protocol II
HIS-tagged RORγ-LBD protein was expressed in SF9 cells using a baculovirus expression system. The RORγ-LBD protein was purified by […]. Separately, SF9 cells not expressing recombinant protein were lysed in TBS buffer (25 mM Tris, pH 8.0, 150 mM NaCl) under sonication. The lysate was added to the purified RORγ-LBD in a volume equivalent of 0.75 μL lysate (from 30,000 SF9 cells) per 75 femtomol of RORγ-LBD protein. The resulting mixture was diluted in assay buffer (50 mM Tris pH 7.0, 50 mM KCl, 1 mM EDTA, 0.1 mM DTT, 0.01% BSA) to obtain RORγ-LBD protein at a final concentration of 3 nM.
Compounds to be tested were injected to the assay plate using Acoustic Droplet Ejection technology by Echo 550 liquid handler (Labcyte, Calif.).
A stock of biotinylated-LXXLL peptide from coactivator SRC1 (Biotin-[…]) was prepared in assay buffer and added to each well (100 nM final concentration). A solution of Europium tagged anti-HIS antibody (1.25 nM final concentration) and APC-conjugated streptavidin (8 nM final concentration) were also added to each well.
as §1, with “overnight at 4° C.,” for “for 4 hours to overnight,”, “μs). The EC50 value for test compounds was calculated from the quotient of the fluorescence signal at 665 nm divided by the fluorescence signal at 615 nm” for “μs).”

T1 sequence (P51449 269-508): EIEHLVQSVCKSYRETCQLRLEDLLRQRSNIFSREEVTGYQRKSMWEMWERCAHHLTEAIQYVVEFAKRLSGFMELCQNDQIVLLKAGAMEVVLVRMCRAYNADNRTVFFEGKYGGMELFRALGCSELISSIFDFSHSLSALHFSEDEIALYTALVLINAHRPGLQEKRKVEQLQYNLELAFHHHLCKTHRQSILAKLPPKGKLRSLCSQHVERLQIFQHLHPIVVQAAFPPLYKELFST

Structure (SMILES)	EC50 (RORγ-LBD [1])	EC50 (RORγ-LBD [2])	RORγ inhibition (RORγ-LBD [1])
C[C@H]1CN(S(=O)(=O)c2cccc(C#N)c2)c2cc(NC(=O)c3c(F)cccc3Cl)cnc2O1 [Compound 25]	1030 nM	70 nM	
Cc1cccc(S(=O)(=O)N2CCCc3ncc(NC(=O)c4c(F)cccc4Cl)cc32)c1 [Compound 37, 2-chloro-6-fluoro-N-(5-(m-tolylsulfonyl)-5,6,7,8-tetrahydro-1,5-naphthyridin-3-yl)benzamide]	52 nM	16 nM	
O=C(Nc1cc2c(cn1)cnn2S(=O)(=O)c1ccc(F)cc1)c1c(Cl)cccc1Cl [Compound 5]	2610 nM		
C[C@H]1CN(S(=O)(=O)c2cccc(C3CC3)c2)c2cc(NC(=O)c3c(F)cccc3Cl)cnc2O1 [Compound 27]	20 nM	11 nM	
Cc1cccc(S(=O)(=O)N2C[C@H](C)Oc3ncc(NC(=O)c4c(F)cccc4C(F)(F)F)cc32)c1 [Compound 24]	132 nM	6 nM	
N#Cc1cccc(S(=O)(=O)n2ncc3ncc(NC(=O)c4c(F)cccc4Cl)cc32)c1 [Compound 3]	48000 nM		did not provide measurable RORγ inhibition
O=C(Nc1cnc2c(c1)N(S(=O)(=O)c1ccc(F)cc1)CCO2)c1c(F)cccc1Cl [Compound 13, 2-chloro-6-fluoro-N-[1-(4-fluorobenzenesulfonyl)-2,3-dihydro-1H-pyrido[2,3-b][1,4]oxazin-7-yl]benzamide]	174 nM		
O=C(Nc1cc2c(cn1)cnn2S(=O)(=O)c1cccc(C(F)(F)F)c1)c1c(F)cccc1Cl [Compound 10]	3620 nM	4330 nM	
O=C(Nc1cnc2c(c1)N(S(=O)(=O)c1ccc(Cl)cc1)CCO2)c1c(F)cccc1Cl [Compound 22]	90 nM		
O=C(Nc1cc2c(cn1)cnn2S(=O)(=O)c1ccc(F)cc1)c1c(Cl)cccc1C(F)(F)F [Compound 6]	2410 nM		
Cc1cccc(S(=O)(=O)N2CCCc3ncc(NC(=O)[C@@H](C)c4ccccc4)cc32)c1 [Compound 38, (S)-2-phenyl-N-(5-(m-tolylsulfonyl)-5,6,7,8-tetrahydro-1,5-naphthyridin-3-yl)propanamide]	414 nM	61 nM	
O=C(Nc1cc2c(cn1)cnn2S(=O)(=O)c1cccc(Cl)c1)c1c(F)cccc1Cl [Compound 7]	6440 nM		
C[C@H](C(=O)Nc1cnc2c(c1)N(S(=O)(=O)c1ccc(F)cc1)C[C@H](C)O2)c1ccccc1 [Compound 29]	3050 nM	387 nM	
Cc1cccc(S(=O)(=O)N2C[C@H](C)Oc3ncc(NC(=O)[C@@H](C)c4ccccc4)cc32)c1 [Compound 28]	810 nM	73 nM	
O=C(Nc1cnc2c(c1)N(S(=O)(=O)c1ccc(F)c(F)c1)CCO2)c1c(F)cccc1Cl [Compound 23]	100 nM		
O=C(Nc1cc2c(cn1)cnn2S(=O)(=O)c1ccc(F)cc1)c1c(F)cccc1F [Compound 4]	50000 nM		did not provide measurable RORγ inhibition
Cc1cccc(S(=O)(=O)N2CC(N(C)C)COc3ncc(NC(=O)c4c(Cl)cccc4Cl)cc32)c1 (stereo not drawn) [Compound 76, 2,6-dichloro-N-[7-dimethylamino-5-(toluene-3-sulfonyl)-5,6,7,8-tetrahydro-9-oxa-1,5-diaza-benzocyclohepten-3-yl]-benzamide]		98 nM	
CC1COc2ncc(NC(=O)c3c(Cl)cccc3C(F)(F)F)cc2N1S(=O)(=O)c1ccc(F)cc1 (stereo not drawn) [Compound 19]	20 nM		
O=C(Nc1cc2c(cn1)cnn2S(=O)(=O)c1cccc(OC(F)F)c1)c1c(F)cccc1Cl [Compound 8]	1060 nM		

Structure (SMILES)	EC50 (RORγ-LBD [1])	EC50 (RORγ-LBD [2])	RORγ inhibition (RORγ-LBD [1])
CC(C)(C)c1cccc(S(=O)(=O)n2ncc3cnc(NC(=O)c4c(F)cccc4Cl)cc32)c1 [Compound 9]	3520 nM		
C[C@H](N)C(=O)N[C@H]1Cc2ncc(NC(=O)c3c(Cl)cccc3Cl)cc2N(S(=O)(=O)c2cccc(C(F)(F)F)c2)C1 [Compound 51]		852 nM	
CCN(CC)[C@H]1Cc2ncc(NC(=O)c3c(Cl)cccc3Cl)cc2N(S(=O)(=O)c2cccc(C)c2)C1 [Compound 78]		25 nM	
CC(=O)N[C@@H]1Cc2ncc(NC(=O)c3c(Cl)cccc3Cl)cc2N(S(=O)(=O)c2cccc(C)c2)C1 [Compound 41, (R)-N-(7-acetamido-5-(m-tolylsulfonyl)-5,6,7,8-tetrahydro-1,5-naphthyridin-3-yl)-2,6-dichlorobenzamide]		18 nM	
CC(=O)NC[C@H]1CN(S(=O)(=O)c2cccc(C3CC3)c2)c2cc(NC(=O)c3c(Cl)cccc3Cl)cnc2O1 [Compound 18, (S)-N-(3-(acetamidomethyl)-1-((3-cyclopropylphenyl)sulfonyl)-2,3-dihydro-1H-pyrido[2,3-b][1,4]oxazin-7-yl)-2,6-dichlorobenzamide]		13 nM	
CC(=O)NC1COc2ncc(NC(=O)c3c(Cl)cccc3Cl)cc2N(S(=O)(=O)c2cccc(C)c2)C1 (stereo not drawn) [Compound 75, N-[7-acetylamino-5-(toluene-3-sulfonyl)-5,6,7,8-tetrahydro-9-oxa-1,5-diaza-benzocyclohepten-3-yl]-2,6-dichloro-benzamide]		291 nM	
O=C(Nc1cc2c(cn1)cnn2S(=O)(=O)c1ccc(F)cc1)c1c(F)cccc1Cl [Compound 2, 2-chloro-6-fluoro-N-[1-(4-fluorobenzenesulfonyl)-1H-pyrazolo-[4,3-c]pyridin-6-yl]benzamide]	2400 nM		
O=C(Nc1cnc2c(c1)N(S(=O)(=O)c1cccc(Cl)c1)C[C@H](CN1CCOCC1)O2)c1c(Cl)cccc1Cl [Compound 90]		30 nM	
O=C(Nc1cnc2c(c1)N(S(=O)(=O)c1cccc(Cl)c1)C[C@H](CN1C(=O)COC1=O)O2)c1c(Cl)cccc1Cl [Compound 85]		20 nM	
CN(C)C[C@H]1CN(S(=O)(=O)c2cccc(Cl)c2)c2cc(NC(=O)c3c(Cl)cccc3Cl)cnc2O1 [Compound 88]		42 nM	
N[C@H](CO)C(=O)NC1Cc2ncc(NC(=O)c3c(Cl)cccc3Cl)cc2N(S(=O)(=O)c2cccc(C(F)(F)F)c2)C1 (stereo partly drawn) [Compound 60]		23 nM	
Cc1nn(C(F)F)cc1S(=O)(=O)N1C[C@@H](NC(=O)C(F)(F)F)Cc2ncc(NC(=O)c3c(F)cccc3Cl)cc21 [Compound 49]		12 nM	
O=C(Nc1cnc2c(c1)N(S(=O)(=O)c1cccc(C(F)(F)F)c1)C[C@H](N1CCCC1=O)C2)c1c(Cl)cccc1Cl [Compound 82]		12 nM	
CCC(C)C(=O)Nc1cnc2c(c1)N(S(=O)(=O)c1cccc(C)c1)C[C@H](C)O2 (stereo partly drawn) [Compound 33]		152 nM	
Cc1cccc(S(=O)(=O)N2C[C@H](C)Oc3ncc(NC(=O)C(C)c4ccc(Cl)cc4)cc32)c1 (stereo partly drawn) [Compound 34]		108 nM	
Cc1nn(C(F)F)cc1S(=O)(=O)N1C[C@H](CN2CC[C@@H](O)C2)Cc2ncc(NC(=O)[C@@H](C)C(C)(C)C)cc21 [Compound 95, (S)-N-((S)-5-((1-(difluoromethyl)-3-methyl-1H-pyrazol-4-yl)sulfonyl)-7-(((R)-3-hydroxypyrrolidin-1-yl)methyl)-5,6,7,8-tetrahydro-1,5-naphthyridin-3-yl)-2,3,3-trimethylbutanamide]		4100 nM	
N#Cc1cccc(S(=O)(=O)N2CCOc3ncc(NC(=O)c4c(F)cccc4Cl)cc32)c1 [Compound 21]	200 nM		
CC(C)OC(=O)N[C@H]1Cc2ncc(NC(=O)c3c(Cl)cccc3Cl)cc2N(S(=O)(=O)c2cccc(C(F)(F)F)c2)C1 [Compound 47]		36 nM	
CN1CCN(C[C@H]2CN(S(=O)(=O)c3cccc(Cl)c3)c3cc(NC(=O)c4c(Cl)cccc4Cl)cnc3O2)CC1=O [Compound 87, (S)-2,6-dichloro-N-(1-((3-chlorophenyl)sulfonyl)-3-((4-methyl-3-oxopiperazin-1-yl)methyl)-2,3-dihydro-1H-pyrido[2,3-b][1,4]oxazin-7-yl)benzamide]		52 nM	
